From ChEMBL document CHEMBL3286148, “Aminoazabenzimidazoles, a novel class of orally active antimalarial agents” (J Med Chem, 2014)
≈ marks a conversion by molar mass, not a printed value.

Columns and labels:
[1] = Selectivity index, ratio of IC50 for human A549 cells to IC50 for Plasmodium falciparum; format: toxicity, cell-based; details: read-out: Ratio IC50
Plasmodium falciparum [2] = experiment: microbe, parasite or virus in culture; details: SB1, 72 h
Description: Antiplasmodial activity against Plasmodium falciparum SB1 after 72 hrs by SYBR I method

Plasmodium falciparum [3] = experiment: microbe, parasite or virus in culture; details: Dd2, 72 h
Description: Antiplasmodial activity against Plasmodium falciparum Dd2 after 72 hrs by SYBR I method

Plasmodium falciparum [4] = experiment: microbe, parasite or virus in culture; details: K1, 72 h
Plasmodium falciparum [5] = experiment: microbe, parasite or virus in culture; details: NF54, 72 h
Plasmodium falciparum [6] = experiment: microbe, parasite or virus in culture; details: W2, 72 h
Description: Antiplasmodial activity against Plasmodium falciparum W2 after 72 hrs by SYBR I method

Plasmodium falciparum [7] = experiment: microbe, parasite or virus in culture; details: 7G8, 72 h
Description: Antiplasmodial activity against Plasmodium falciparum 7G8 after 72 hrs by SYBR I method

[8] = target: Voltage-gated inwardly rectifying potassium channel KCNH2 (Homo sapiens, UniProt Q12809); experiment: Inhibition of human ERG
[9] = Clearance in human liver microsomes; format: ADME; details: read-out: CLH
[10] = Clearance in mouse liver microsomes; format: ADME; details: read-out: CLH
[11] = Clearance in rat hepatocytes assessed per 1E6 cells; format: ADME, cell-based, Hepatocyte; details: read-out: CLH
Cytochrome P450 2C9 = Cytochrome P450 2C9 (Homo sapiens, UniProt P11712); experiment: Inhibition of CYP2C9 (unknown origin); format: ADME
Cytochrome P450 2D6 = Cytochrome P450 2D6 (Homo sapiens, UniProt P10635); experiment: Inhibition of CYP2D6 (unknown origin); format: ADME
Cytochrome P450 2C19 = Cytochrome P450 2C19 (Homo sapiens, UniProt P33261); experiment: Inhibition of CYP2C19 (unknown origin); format: ADME
Cytochrome P450 1A2 = target: T1, Cytochrome P450 1A2 (Homo sapiens, UniProt P05177); experiment: Inhibition of CYP1A2 (unknown origin); format: ADME
T1 sequence (P05177 whole entry): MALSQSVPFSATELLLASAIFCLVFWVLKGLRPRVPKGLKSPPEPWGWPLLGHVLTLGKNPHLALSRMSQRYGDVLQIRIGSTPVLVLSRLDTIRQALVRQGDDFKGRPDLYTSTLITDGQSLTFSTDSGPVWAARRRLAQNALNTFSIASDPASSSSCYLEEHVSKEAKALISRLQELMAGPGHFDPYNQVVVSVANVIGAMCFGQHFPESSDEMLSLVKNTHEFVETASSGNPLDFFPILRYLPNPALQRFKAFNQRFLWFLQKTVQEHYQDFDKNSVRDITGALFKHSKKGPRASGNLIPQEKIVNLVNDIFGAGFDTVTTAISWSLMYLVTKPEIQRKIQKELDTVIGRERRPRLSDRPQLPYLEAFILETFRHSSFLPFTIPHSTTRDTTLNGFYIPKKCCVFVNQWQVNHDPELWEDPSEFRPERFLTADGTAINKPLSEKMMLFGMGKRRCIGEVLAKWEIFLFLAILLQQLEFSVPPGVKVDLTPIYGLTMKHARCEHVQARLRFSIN

Cytochrome P450 3A4 = Cytochrome P450 3A4 (Homo sapiens, UniProt P08684); experiment: Inhibition of CYP3A4 (unknown origin); format: ADME
[12] = Fraction unbound in human plasma; format: ADME, cell-free
[13] = Lipophilicity, log D of the compound; format: physicochemical; details: octanol/water
[14] = Aqueous solubility of the compound; format: physicochemical; details: buffer
Plasmodium falciparum [15] = experiment: Antiplasmodial activity against Plasmodium falciparum Dd2; format: functional, organism-based
Plasmodium falciparum [16] = experiment: Antiplasmodial activity against Plasmodium falciparum Dd2 harboring DHODH mutant; format: functional, organism-based
Plasmodium falciparum [17] = experiment: Antiplasmodial activity against Plasmodium falciparum Dd2 harboring CRT mutant; format: functional, organism-based
Plasmodium falciparum [18] = experiment: Antiplasmodial activity against Plasmodium falciparum Dd2 harboring CYTb-Qi mutant; format: functional, organism-based

Chain of Voltage-gated inwardly rectifying potassium channel KCNH2 (Q12809 whole entry): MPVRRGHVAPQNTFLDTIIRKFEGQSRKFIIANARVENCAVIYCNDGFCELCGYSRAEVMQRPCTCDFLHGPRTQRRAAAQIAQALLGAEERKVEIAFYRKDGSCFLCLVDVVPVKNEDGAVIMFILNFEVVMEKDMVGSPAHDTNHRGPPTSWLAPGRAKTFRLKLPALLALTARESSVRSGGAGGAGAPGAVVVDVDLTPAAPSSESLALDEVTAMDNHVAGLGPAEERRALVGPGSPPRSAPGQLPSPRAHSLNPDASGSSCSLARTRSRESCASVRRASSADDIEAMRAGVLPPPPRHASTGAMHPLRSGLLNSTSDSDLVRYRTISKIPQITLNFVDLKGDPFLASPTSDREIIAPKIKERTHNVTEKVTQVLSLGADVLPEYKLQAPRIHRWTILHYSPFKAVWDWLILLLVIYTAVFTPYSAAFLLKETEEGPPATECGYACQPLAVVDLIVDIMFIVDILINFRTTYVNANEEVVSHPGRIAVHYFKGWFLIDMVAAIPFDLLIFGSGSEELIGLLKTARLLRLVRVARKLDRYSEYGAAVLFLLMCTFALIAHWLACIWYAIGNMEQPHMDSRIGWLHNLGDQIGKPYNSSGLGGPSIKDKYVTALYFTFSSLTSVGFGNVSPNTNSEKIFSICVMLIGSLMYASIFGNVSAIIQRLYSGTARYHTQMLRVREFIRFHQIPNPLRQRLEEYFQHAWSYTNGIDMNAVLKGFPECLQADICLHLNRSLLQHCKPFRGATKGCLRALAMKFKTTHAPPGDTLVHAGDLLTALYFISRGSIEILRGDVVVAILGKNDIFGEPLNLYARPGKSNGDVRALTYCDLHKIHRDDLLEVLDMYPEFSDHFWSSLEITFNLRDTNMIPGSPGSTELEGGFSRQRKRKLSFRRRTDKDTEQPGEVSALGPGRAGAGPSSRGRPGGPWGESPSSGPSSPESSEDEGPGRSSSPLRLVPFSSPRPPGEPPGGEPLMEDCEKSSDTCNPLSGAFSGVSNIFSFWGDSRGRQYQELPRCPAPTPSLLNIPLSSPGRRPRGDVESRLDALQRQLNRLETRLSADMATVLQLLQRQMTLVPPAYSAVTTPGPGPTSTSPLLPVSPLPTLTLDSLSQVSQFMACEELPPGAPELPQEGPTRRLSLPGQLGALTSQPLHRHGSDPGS
Chain of Cytochrome P450 2C9 (P11712 whole entry): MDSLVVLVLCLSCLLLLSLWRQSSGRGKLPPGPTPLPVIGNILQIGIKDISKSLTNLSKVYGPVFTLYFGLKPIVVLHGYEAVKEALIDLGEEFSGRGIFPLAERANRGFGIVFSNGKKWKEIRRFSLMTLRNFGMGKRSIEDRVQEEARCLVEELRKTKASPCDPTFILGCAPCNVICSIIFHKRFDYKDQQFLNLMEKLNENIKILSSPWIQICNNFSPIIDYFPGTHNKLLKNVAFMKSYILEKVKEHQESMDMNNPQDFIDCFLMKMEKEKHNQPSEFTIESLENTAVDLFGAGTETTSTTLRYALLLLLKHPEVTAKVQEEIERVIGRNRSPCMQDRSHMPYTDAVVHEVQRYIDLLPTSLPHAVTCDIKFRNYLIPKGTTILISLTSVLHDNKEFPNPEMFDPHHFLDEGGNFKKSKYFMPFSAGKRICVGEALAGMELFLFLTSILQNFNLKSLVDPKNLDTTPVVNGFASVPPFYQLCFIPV
Chain of Cytochrome P450 3A4 (P08684 whole entry): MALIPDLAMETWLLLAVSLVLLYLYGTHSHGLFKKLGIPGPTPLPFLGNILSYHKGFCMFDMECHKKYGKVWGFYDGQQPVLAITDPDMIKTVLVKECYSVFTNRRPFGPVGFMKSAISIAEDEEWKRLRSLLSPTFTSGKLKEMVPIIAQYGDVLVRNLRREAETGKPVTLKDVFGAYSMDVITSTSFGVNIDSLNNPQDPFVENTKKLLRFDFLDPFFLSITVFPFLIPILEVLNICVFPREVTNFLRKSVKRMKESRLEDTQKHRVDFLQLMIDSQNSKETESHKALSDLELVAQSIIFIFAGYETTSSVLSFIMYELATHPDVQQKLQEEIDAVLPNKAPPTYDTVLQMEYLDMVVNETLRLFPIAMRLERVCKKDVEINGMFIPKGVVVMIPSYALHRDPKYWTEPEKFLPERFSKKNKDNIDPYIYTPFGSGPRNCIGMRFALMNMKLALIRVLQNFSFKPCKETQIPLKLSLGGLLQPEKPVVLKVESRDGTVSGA
Chain of Cytochrome P450 2C19 (P33261 whole entry): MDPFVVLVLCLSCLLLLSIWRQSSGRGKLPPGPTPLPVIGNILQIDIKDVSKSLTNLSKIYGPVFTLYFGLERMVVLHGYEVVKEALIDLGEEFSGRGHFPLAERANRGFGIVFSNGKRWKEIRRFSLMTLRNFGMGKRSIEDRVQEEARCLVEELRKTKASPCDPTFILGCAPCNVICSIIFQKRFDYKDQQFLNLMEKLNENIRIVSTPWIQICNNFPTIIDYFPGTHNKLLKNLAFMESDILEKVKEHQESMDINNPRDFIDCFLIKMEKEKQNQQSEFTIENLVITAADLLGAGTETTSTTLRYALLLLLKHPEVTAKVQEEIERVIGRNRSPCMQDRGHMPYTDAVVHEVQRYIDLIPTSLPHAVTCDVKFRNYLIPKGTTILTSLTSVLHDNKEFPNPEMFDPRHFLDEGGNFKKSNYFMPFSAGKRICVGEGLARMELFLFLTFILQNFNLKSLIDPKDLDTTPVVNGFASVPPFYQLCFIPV
Chain of Cytochrome P450 2D6 (P10635 whole entry): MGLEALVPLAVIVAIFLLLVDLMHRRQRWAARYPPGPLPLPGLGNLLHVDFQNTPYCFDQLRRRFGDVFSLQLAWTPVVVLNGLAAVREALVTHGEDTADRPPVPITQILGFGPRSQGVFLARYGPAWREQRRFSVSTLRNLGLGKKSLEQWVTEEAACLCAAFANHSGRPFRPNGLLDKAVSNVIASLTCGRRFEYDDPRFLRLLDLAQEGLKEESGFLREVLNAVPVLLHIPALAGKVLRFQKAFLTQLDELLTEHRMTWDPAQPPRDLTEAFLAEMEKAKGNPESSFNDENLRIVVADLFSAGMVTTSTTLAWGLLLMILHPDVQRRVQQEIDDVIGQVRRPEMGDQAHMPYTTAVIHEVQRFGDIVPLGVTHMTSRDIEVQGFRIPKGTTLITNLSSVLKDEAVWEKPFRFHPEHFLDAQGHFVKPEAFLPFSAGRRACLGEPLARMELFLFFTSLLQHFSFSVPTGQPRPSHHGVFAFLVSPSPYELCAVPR

| Structure (SMILES) | selectivity ratio [1] | IC50 (Plasmodium falciparum [4]) | IC50 (Plasmodium falciparum [5]) | IC50 [8] | microsomal CLint [9] | hepatocyte CLint [11] | other results |
| --- | --- | --- | --- | --- | --- | --- | --- |
| Nc1nc2ccccc2n1-c1ccccc1O | 1190 | 54 nM | 84 nM |  |  |  | IC50 (Plasmodium falciparum [2]): 164 nM; IC50 (Plasmodium falciparum [3]): 329 nM; IC50 (Plasmodium falciparum [6]): 260 nM; IC50 (Plasmodium falciparum [7]): 66.1 nM |
| Nc1nccn1CC(O)c1ccc(Cl)cc1Cl (racemic) | > 263 | 280 nM | 380 nM |  |  |  |  |
| Nc1nccn1CC(O)c1ccc(Cl)cc1F (racemic) | > 50 | > 2000 nM | > 2000 nM | 60000 nM |  |  |  |
| Cc1cc(Cl)ccc1C(O)Cn1ccnc1N (racemic) | > 50 | > 2000 nM | > 2000 nM |  |  |  |  |
| Nc1nccn1CC(O)c1cccc(Cl)c1Cl (racemic) |  | 230 nM | 350 nM |  |  |  |  |
| Cc1cn(CC(O)c2ccc(Cl)cc2Cl)c(N)n1 (racemic) |  | 250 nM | 380 nM |  |  |  |  |
| Cc1nc(N)n(CC(O)c2ccc(Cl)cc2Cl)c1C (racemic) | 220 | 200 nM | 300 nM | > 33300 nM |  |  |  |
| Nc1nc(C2CC2)cn1CC(O)c1ccc(Cl)cc1Cl (racemic) | 241 | 70 nM | 120 nM | 4500 nM |  |  |  |
| Nc1nc(-c2ccc(F)cc2)cn1CC(O)c1ccc(C(F)(F)F)cc1Cl (racemic) | 72 | 60 nM | 140 nM | 25000 nM |  |  |  |
| Nc1nc2ccccc2n1CC(O)c1ccc(Cl)cc1Cl (racemic) |  | 7 nM | 18 nM |  | 25 µL/min/mg | 155 µL/min/1e6 cells | IC50 (Plasmodium falciparum [2]): 42.5 nM; IC50 (Plasmodium falciparum [3]): 30 nM; microsomal CLint [10]: 213 µL/min/mg; IC50 (Plasmodium falciparum [6]): 11.6 nM; IC50 (Plasmodium falciparum [7]): 4.09 nM |
| N#Cc1ccc2nc(N)n(CC(O)c3cccc(Cl)c3Cl)c2c1 (racemic) |  | 300 nM | 29 nM |  | 96 µL/min/mg | 53 µL/min/1e6 cells |  |
| CS(=O)(=O)c1ccc2nc(N)n(CC(O)c3cccc(Cl)c3Cl)c2c1 (racemic) | > 50 | > 2000 nM | > 2000 nM | > 33300 nM | 68 µL/min/mg | 44 µL/min/1e6 cells |  |
| Nc1nc2ccc(Cl)cc2n1CC(O)c1cccc(Cl)c1Cl (racemic) | 2.3 | 40 nM | 320 nM | > 33300 nM | 49 µL/min/mg | 22 µL/min/1e6 cells |  |
| Nc1nc2ccc(C(F)(F)F)cc2n1CC(O)c1ccc(C(F)(F)F)cc1Cl (racemic) | 94 | 10 nM | 53 nM | > 10500 nM | 9 µL/min/mg | 31 µL/min/1e6 cells | IC50 (Cytochrome P450 2C9): 27900 nM; IC50 (Cytochrome P450 2D6): 26300 nM; IC50 (Cytochrome P450 2C19): 2700 nM; IC50 (Plasmodium falciparum [2]): 121 nM; IC50 (Plasmodium falciparum [3]): 48.7 nM; microsomal CLint [10]: 62 µL/min/mg; IC50 (Cytochrome P450 1A2): 29400 nM; IC50 (Cytochrome P450 3A4): > 30000 nM; fraction unbound [12]: < 0.01; logD [13]: > 4.6; IC50 (Plasmodium falciparum [6]): 24.1 nM; solubility [14]: 3 µM (≈ 1.27 µg/mL); IC50 (Plasmodium falciparum [7]): 3.25 nM |
| Nc1nc2cnccc2n1CC(O)c1ccc(Cl)cc1Cl (racemic) | > 25 | > 500 nM | > 2000 nM |  | 5 µL/min/mg | 14 µL/min/1e6 cells | microsomal CLint [10]: 41 µL/min/mg |
| Nc1nc2cccnc2n1CC(O)c1cccc(Cl)c1Cl (racemic) | 26 | 180 nM | 340 nM | > 33300 nM | 69 µL/min/mg | 110 µL/min/1e6 cells | IC50 (Cytochrome P450 2C9): > 30000 nM; IC50 (Cytochrome P450 2D6): > 30000 nM; IC50 (Cytochrome P450 2C19): 10200 nM; IC50 (Cytochrome P450 1A2): 5200 nM; IC50 (Cytochrome P450 3A4): > 30000 nM; fraction unbound [12]: 0.118; logD [13]: 3; solubility [14]: 26 µM (≈ 8.4 µg/mL) |
| Nc1nc2ccc(NCC(F)(F)F)nc2n1CC(O)c1ccc(Cl)cc1Cl (racemic) | 375 | 14 nM | 40 nM | 3500 nM | 17 µL/min/mg | 198 µL/min/1e6 cells | microsomal CLint [10]: 87 µL/min/mg |
| Nc1nc2ccc(C3CC3)nc2n1CC(O)c1ccc(Cl)cc1Cl (racemic) | > 260 | 22 nM | 96 nM |  | 47 µL/min/mg | 94 µL/min/1e6 cells | microsomal CLint [10]: > 130 µL/min/mg |
| Nc1nc2ccc(C(=O)NC3CC3)nc2n1CC(O)c1ccc(Cl)cc1Cl (racemic) | > 10 | > 500 nM | > 2000 nM |  |  |  |  |
| Nc1nc2ccc(OC3CNC3)nc2n1CC(O)c1ccc(C(F)(F)F)cc1Cl (racemic) | > 50 | > 500 nM | > 2000 nM | > 33300 nM | < 4 µL/min/mg | 14 µL/min/1e6 cells |  |
| Nc1nnc(C2CC2)n1CC(O)c1ccc(C(F)(F)F)cc1Cl (racemic) | > 50 | > 2000 nM | > 2000 nM |  |  |  |  |
| Nc1nnnn1CC(O)c1c(Cl)cccc1Cl (racemic) | > 50 | > 2000 nM | > 2000 nM |  |  |  |  |
| Nc1ncccc1CC(O)c1cccc(Cl)c1Cl (racemic) | 294 | 50 nM | 180 nM |  |  |  | IC50 (Plasmodium falciparum [2]): 472 nM; IC50 (Plasmodium falciparum [3]): 410 nM; IC50 (Plasmodium falciparum [6]): 110 nM; IC50 (Plasmodium falciparum [7]): 29.2 nM |
| NC1=Nc2ccccc2CN1CC(O)c1ccc(Cl)cc1Cl (racemic) | 141 | 25 nM | 177 nM |  |  |  |  |
| O=C1C(O)=C([C@H]2CC[C@H](c3ccc(Cl)cc3)CC2)C(=O)c2ccccc21 [ATOVAQUONE] |  | 2.26 nM | 1.36 nM |  |  |  | IC50 (Plasmodium falciparum [2]): > 2000 nM; IC50 (Plasmodium falciparum [6]): 1.16 nM; IC50 (Plasmodium falciparum [7]): 2.32 nM |
| COC1=C2C[C@@H](C)C[C@H](OC)[C@H](O)[C@@H](C)/C=C(\C)[C@H](OC(N)=O)[C@@H](OC)/C=C\C=C(/C)C(=O)NC(=CC1=O)C2=O [GELDANAMYCIN] |  |  |  |  |  |  | IC50 (Plasmodium falciparum [15]): 176 nM; IC50 (Plasmodium falciparum [16]): 257 nM; IC50 (Plasmodium falciparum [17]): 204 nM; IC50 (Plasmodium falciparum [18]): 169 nM |
| CCc1nc(N)nc(N)c1-c1ccc(Cl)cc1 [PYRIMETHAMINE] |  | 8560 nM | 28.3 nM |  |  |  | IC50 (Plasmodium falciparum [2]): 10.8 nM; IC50 (Plasmodium falciparum [3]): 13800 nM; IC50 (Plasmodium falciparum [6]): 15400 nM; IC50 (Plasmodium falciparum [7]): 10000 nM |
